Holding throughout (test): NCI-60 cell line screen, 48 h
Assay [1] deals with 786-0.
Assay [2] concerns BT-549.
The subject of assay [3] is HOP-92.
Assay [4] deals with Hs-578T.
The subject of assay [5] is LOX IMVI.
Assay [6] has as its system M14.
Assay [7] has as its system Malme-3M.
Assay [8] concerns NCI-H522.
Assay [9] has as its system OVCAR-3.
The subject of assay [10] is OVCAR-4.
Assay [11] relates to PC-3.
Assay [12] relates to SF-268.
Assay [13] concerns SF-295.
Assay [14] deals with SK-MEL-5.
The subject of assay [15] is SN12C.
The test system of assay [16] is SNB-19.
Assay [17] has as its system SR.
Assay [18] deals with T47D.
The test system of assay [19] is TK-10.
Assay [20] relates to UO-31.

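Compound exposure: 48 hours, 5 concentrations, 96-well plates. Here, GI50 denotes the concentration required for 50% inhibition of growth.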 Calls of active or inactive are those of the source. Cut-off read from the data, not from the text of the source: active = GI50 up to about 1.1 µM and inactive = higher.

`COC(=O)[C@@H]1c2c(oc3cc(CO)cc(O)c3c2=O)C=C[C@H]1O`: the GI50 in assay [1] is 2.45 µM (inactive); in [2], 2.94 µM (inactive); in assay [3], 8.63 µM (inactive); in assay [4], 24.7 µM (inactive); in [5] it was 3.32 µM (inactive); in assay [6], 5.97 µM (inactive). Moreover, the GI50 is 1.74 µM (inactive) in assay [7]; 1.84 µM (inactive) in assay [8]; 8.02 µM (inactive) in assay [9]; 3.52 µM (inactive) in assay [10]; 7.18 µM (inactive) in assay [11]; 6.19 µM (inactive) in assay [12]. Besides, the GI50 is 18.4 µM (inactive) in assay [13]; 5.73 µM (inactive) in [14]; 9.86 µM (inactive) in [15]; 17.7 µM (inactive) in assay [16]; 5.6 µM (inactive) in [17]; 2.7 µM (inactive) in [18]. In addition, the GI50 is 2.34 µM (inactive) in [19] and 3.78 µM (inactive) in assay [20].

Consider `C=C1CC(COc2ccc3c(C)c(C)c(=O)oc3c2C)(c2ccccc2)OC1=O` (stereo not given), for which the GI50 in assay [1] was 1.41 µM (inactive); in [2], 1.63 µM (inactive); in assay [3], 1.45 µM (inactive); in [4], 4.26 µM (inactive); in assay [5], 1 µM (active); in assay [6], 1.57 µM (inactive). The GI50 in assay [7] is 1.62 µM (inactive); in assay [8] it was 1.64 µM (inactive); in assay [9], 2.88 µM (inactive); in [10] it was 2.32 µM (inactive); in assay [11] it was 1.73 µM (inactive); in assay [12], 2.64 µM (inactive). The GI50 in assay [13] is 5.66 µM (inactive); in assay [14] it was 1.59 µM (inactive); in [15], 3.39 µM (inactive); in [16], 13.5 µM (inactive); in assay [17], 1.46 µM (inactive); in assay [18], 2.07 µM (inactive). In addition, the GI50 in [19] is 1.45 µM (inactive); in [20], 2.77 µM (inactive).

As to `CC(=O)O[C@H]1C[C@H]2[C@@H](OC(C)=O)/C=C3\C[C@](C)(C(=O)[C@H](O)C(=C1C)C2(C)C)[C@@H](O)C[C@@H]3OC(=O)[C@H](O)[C@H](c1ccccc1)N(C)C`, the GI50 in [1], in [2], in assay [3], in [4], in [5] and in [6] was > 100 µM (inactive) throughout. Moreover, the GI50 in assay [7], in assay [8], in assay [9], in assay [10], in [11] and in assay [12] was > 100 µM (inactive) throughout. Moreover, the GI50 in assay [13], in assay [14], in [15], in assay [16], in assay [17] and in assay [18] was > 100 µM (inactive) throughout. Also, the GI50 in assay [19] and in assay [20] was > 100 µM (inactive) throughout.

For the molecule `Clc1ccc(C2NN=C3c4ccccc4OCC32)cc1` (stereo not given), the GI50 is 4.65 µM (inactive) in assay [1]; 13.5 µM (inactive) in assay [2]; 19.6 µM (inactive) in assay [3]; 3.2 µM (inactive) in assay [4]; 8.02 µM (inactive) in assay [5]; 2.84 µM (inactive) in assay [6]. Moreover, the GI50 is 3.15 µM (inactive) in assay [7]; 1.5 µM (inactive) in [8]; 5.16 µM (inactive) in assay [9]; 13.4 µM (inactive) in assay [10]; 4.11 µM (inactive) in assay [11]; 5.36 µM (inactive) in assay [12]. In addition, the GI50 is 2.11 µM (inactive) in [13]; 3.01 µM (inactive) in assay [14]; 5.73 µM (inactive) in assay [15]; 5.42 µM (inactive) in assay [16]; 1.86 µM (inactive) in assay [17]; 5.83 µM (inactive) in assay [18]. Further, the GI50 in [19] is 22.8 µM (inactive); in [20] it was 7.16 µM (inactive).

As for `O=C1C=CC2(O[C@H](C3CCCCC3)[C@@H](C3CCCCC3)O2)C(SC(=O)c2ccccc2)C1` (stereo not given in full), the GI50 in assay [1] was 1.68 µM (inactive); in [2], 3.1 µM (inactive); in assay [3], 8.39 µM (inactive); in assay [4], 1.92 µM (inactive); in assay [5], 1.41 µM (inactive); in assay [6], 2.14 µM (inactive). Further, the GI50 in assay [7] is 3.66 µM (inactive); in assay [8], 1.04 µM (active); in [9], 0.891 µM (active); in assay [10], 1.25 µM (inactive); in assay [11], 2.23 µM (inactive); in [12], 2.62 µM (inactive). The GI50 in assay [13] is 7.14 µM (inactive); in assay [14] it was 1.77 µM (inactive); in assay [15] it was 1.82 µM (inactive); in assay [16], 1.44 µM (inactive); in [17], 0.925 µM (active); in assay [18] it was 0.975 µM (active). Also, the GI50 in assay [19] is 2.26 µM (inactive); in assay [20], 1.55 µM (inactive).

`CC(=O)NNC1=NN(C(C)=O)C2(S1)C(=O)Nc1ccc(Br)cc12` (stereo not given): the GI50 in assay [1] was > 100 µM (inactive); in assay [2] it was 59.6 µM (inactive); in assay [3], 65.5 µM (inactive); in [4] it was > 100 µM (inactive); in assay [5], > 100 µM (inactive); in assay [6], > 100 µM (inactive). For the same molecule, the GI50 in [7] is > 100 µM (inactive); in assay [8] it was > 100 µM (inactive); in assay [9], > 100 µM (inactive); in [10], 78.3 µM (inactive); in assay [11], > 100 µM (inactive); in [12], > 100 µM (inactive). Further, the GI50 in [13] was > 100 µM (inactive); in assay [14] it was > 100 µM (inactive); in [15], > 100 µM (inactive); in assay [16] it was > 100 µM (inactive); in assay [17] it was > 100 µM (inactive); in [18] it was 22 µM (inactive). Also, the values for the GI50 in assay [19] and in [20] were > 100 µM (inactive) and 39.4 µM (inactive), respectively.

For `OCC12C3C4C5C3C1C5C42` (stereo not given), the GI50 in assay [1], in assay [2], in assay [3], in [4], in assay [5] and in [6] was > 100 µM (inactive) each time. For the same molecule, the GI50 in assay [7], in assay [8], in assay [9], in [10], in assay [11] and in assay [12] was > 100 µM (inactive) each time. Moreover, the GI50 in assay [13], in [14], in assay [15], in assay [16], in assay [17] and in assay [18] was > 100 µM (inactive) in each case. The GI50 in assay [19] and in assay [20] was > 100 µM (inactive) each time.

Consider `Cc1c(S(=O)(=O)O)ccc(/N=N/c2c(O)c(C(=O)O)cc3ccccc23)c1Cl`, for which the GI50 was > 89.3 µM (inactive) in assay [1]; > 100 µM (inactive) in [2]; > 100 µM (inactive) in assay [3]; > 62.1 µM (inactive) in [4]; > 100 µM (inactive) in assay [5]; > 100 µM (inactive) in assay [6]. Besides, the GI50 was > 63.5 µM (inactive) in assay [7]; > 100 µM (inactive) in [8]; > 100 µM (inactive) in assay [9]; > 100 µM (inactive) in assay [10]; > 100 µM (inactive) in assay [11]; > 100 µM (inactive) in assay [12]. Moreover, the GI50 in assay [13] was > 100 µM (inactive); in [14] it was > 100 µM (inactive); in assay [15] it was > 100 µM (inactive); in assay [16], > 100 µM (inactive); in assay [17] it was > 50.2 µM (inactive); in [18], > 100 µM (inactive). Also, the GI50 in [19] and in assay [20] was > 100 µM (inactive) in each case.

As for `COc1ccc(-c2oc3c(OC)c(OC)c(OC)c(O)c3c(=O)c2OC)cc1OC`, the GI50 is 25.4 µM (inactive) in [1]; 34.4 µM (inactive) in assay [2]; 0.243 µM (active) in assay [3]; 3.01 µM (inactive) in assay [4]; 11 µM (inactive) in assay [5]; 26.4 µM (inactive) in assay [6]. The GI50 in [7] is 46.8 µM (inactive); in [8] it was 14.3 µM (inactive); in assay [9] it was 22.7 µM (inactive); in assay [10] it was 26.5 µM (inactive); in [11], 18 µM (inactive); in [12], 9.33 µM (inactive). For the same molecule, the GI50 was 22 µM (inactive) in [13]; 9.71 µM (inactive) in assay [14]; 26.2 µM (inactive) in assay [15]; 63.4 µM (inactive) in assay [16]; 7.87 µM (inactive) in assay [17]; 2.86 µM (inactive) in assay [18]. The GI50 in assay [19] was 36.2 µM (inactive); in assay [20], 9.06 µM (inactive).

`CNC(=O)Nc1ccccc1`: the GI50 in [1], in assay [2], in assay [3], in [4], in [5] and in assay [6] was > 100 µM (inactive) each time. The GI50 in assay [7], in [8], in assay [9], in assay [10], in [11] and in [12] was > 100 µM (inactive) throughout. Moreover, the GI50 in assay [13], in [14], in assay [15], in assay [16], in assay [17] and in [18] was > 100 µM (inactive) in each case. The GI50 in assay [19] and in assay [20] was > 100 µM (inactive) throughout.
